The values below are quoted from earlier work in the PKSmart pharmacokinetics tables (Seal et al. 2025).

Molecules are shown by their SMILES.

Series [1] can be described thus: Lombardo et al. 2013, J Clin Pharmacol 53:178, doi 10.1177/0091270012440282. The settings on record: for Vd / clearance: in vivo, iv; for fraction unbound: plasma.
A short description of series [2]: Lombardo, Berellini, Obach 2018, Drug Metab Dispos 46:1466, doi 10.1124/dmd.118.082966. The settings on record: human; for MRT / Vd / clearance / half-life: in vivo, iv; for fraction unbound: plasma.

As for `CN1CCC[C@H]1c1cccnc1`, in series [1] (dog), the Vd was 3.3 L/kg and the clearance is 42 mL/min/kg. Also, in series [1] (rat), the Vd is 2.77 L/kg and the clearance was 46.3 mL/min/kg. Besides, in series [2], the MRT is 2.4 h, the volume of distribution (Vd) was 2.6 L/kg, the clearance was 18 mL/min/kg and the half-life was 2 h.
For `NC(=O)OC[C@@H]1C(=NC(=O)C(NOCC(=O)O)c2csc(N)n2)C(=O)N1S(=O)(=O)O` (stereo not given in full), in series [1] (dog), the Vd was 0.1 L/kg, the clearance was 5.5 mL/min/kg and the fraction unbound is 0.89. For the same molecule, in series [1] (monkey), the Vd is 0.12 L/kg, the clearance was 4.5 mL/min/kg and the unbound share (fraction unbound) was 0.76. Besides, in series [1] (rat), the Vd is 0.1 L/kg, the clearance was 22 mL/min/kg and the fraction unbound was 0.7. In series [2], the MRT is 2 h, the Vd is 0.18 L/kg, the clearance was 1.5 mL/min/kg and the half-life was 1.6 h. Besides, the fraction unbound in series [2] was 0.72.
As for `Nc1nc(NC2CC2)c2ncn([C@H]3C=C[C@@H](CO)C3)c2n1`, the clearance in series [1] (rat) is 30 mL/min/kg. In addition, in series [2], the MRT is 1.1 h, the Vd was 0.84 L/kg, the clearance was 13 mL/min/kg and the half-life was 1 h. Moreover, in series [2], the unbound share (fraction unbound) is 0.5.
With `C[C@@H](CN1CC(=O)NC(=O)C1)N1CC(=O)NC(=O)C1`, in series [1] (dog), the Vd was 0.72 L/kg and the clearance was 11.5 mL/min/kg. Besides, in series [2], the MRT was 3 h, the volume of distribution (Vd) was 0.55 L/kg, the clearance is 3.1 mL/min/kg and the half-life was 2.5 h.
Turning to `Cc1cc(=O)c(C(=O)NC(C(=O)NC2C(=O)N3C(C(=O)O)=C(CSc4nnnn4C)CS[C@H]23)c2ccc(O)cc2)c[nH]1` (stereo not given in full), in series [1] (dog), the Vd is 0.49 L/kg, the clearance is 5.7 mL/min/kg and the fraction unbound is 0.7. For the same molecule, in series [1] (monkey), the Vd is 0.1 L/kg, the clearance was 0.5 mL/min/kg and the fraction unbound was 0.07. In series [1] (rat), the Vd is 0.26 L/kg, the clearance was 9.5 mL/min/kg and the fraction unbound is 0.54. In series [2], the MRT was 5.2 h, the Vd was 0.15 L/kg, the clearance is 0.48 mL/min/kg and the half-life is 5.4 h. In addition, the fraction unbound in series [2] was 0.03.
Consider `CC(C)(C)NC(=O)C1C[C@@H]2CCCC[C@@H]2CN1C[C@@H](O)[C@H](Cc1ccccc1)NC(=O)C(CC(N)=O)NC(=O)c1ccc2ccccc2n1` (stereo not given in full), for which, in series [1] (rat), the Vd was 3 L/kg and the fraction unbound is 0.007. In series [2], the mean residence time (MRT) is 4.6 h, the Vd is 3.6 L/kg and the half-life is 13 h.
As for `COC(=O)CCc1ccc(OCC(O)CNC(C)C)cc1` (stereo not given), in series [1] (dog), the Vd was 3.4 L/kg, the clearance is 1500 mL/min/kg and the free fraction (fraction unbound) is 0.62. In series [1] (rat), the fraction unbound is 0.71. Besides, in series [2], the MRT was 0.07 h, the Vd is 1.2 L/kg, the clearance was 290 mL/min/kg and the half-life is 0.15 h. For the same molecule, the fraction unbound in series [2] is 0.59.
For the molecule `Cc1nnc2n1-c1ccc(Cl)cc1C(c1ccccc1)=NC2`, in series [1] (rat), the Vd is 2.7 L/kg, the clearance was 133 mL/min/kg and the fraction unbound was 0.35. For the same molecule, in series [2], the MRT is 18 h, the Vd was 0.8 L/kg, the clearance is 0.74 mL/min/kg and the half-life is 12 h.
Consider `O=c1[nH]cc(F)c(=O)[nH]1`, for which, in series [1] (rat), the Vd is 0.25 L/kg, the clearance is 33 mL/min/kg and the fraction unbound is 0.69. In series [2], the fraction unbound is 0.64.
For `Cc1cccnc1NS(=O)(=O)c1ccc(C#Cc2ccc(O)c(C(=O)O)c2)cc1`, in series [1] (dog), the Vd is 0.19 L/kg, the clearance is 20 mL/min/kg and the fraction unbound was 0.01. Also, in series [1] (monkey), the Vd was 0.08 L/kg, the clearance is 1.9 mL/min/kg and the fraction unbound was 0.003. In series [1] (rat), the Vd is 1.2 L/kg, the clearance was 62 mL/min/kg and the fraction unbound was 0.0033. For the same molecule, in series [2], the MRT was 23.8 h, the Vd is 0.1 L/kg, the clearance is 0.07 mL/min/kg and the half-life is 16 h. Also, the fraction unbound in series [2] was 0.0019.
For `O=[N+]([O-])O[C@H]1CO[C@H]2[C@@H]1OC[C@H]2O[N+](=O)[O-]`, in series [1] (dog), the Vd is 3 L/kg and the clearance was 180 mL/min/kg. In series [1] (monkey), the Vd is 1.7 L/kg and the clearance is 58.8 mL/min/kg. In addition, in series [1] (rat), the Vd is 2.6 L/kg and the clearance was 122 mL/min/kg. Also, in series [2], the MRT was 1 h, the Vd is 1.9 L/kg, the clearance was 31 mL/min/kg and the half-life was 1.7 h. In addition, the fraction unbound in series [2] is 0.72.
As for `C[C@@H]1CN(c2c(F)c(N)c3c(=O)c(C(=O)O)cn(C4CC4)c3c2F)C[C@H](C)N1`, in series [1] (rat), the Vd is 3.5 L/kg, the clearance was 19.6 mL/min/kg and the fraction unbound is 0.5. In series [2], the MRT is 24 h, the Vd was 3.9 L/kg, the clearance was 2.7 mL/min/kg and the half-life is 20 h.

What is called Vd is a proportionality between amount in the body and measured concentration, not a real space. In general, clearance refers to a measure of how efficiently the substance is removed, as volume per time. As usually defined, the MRT is a mean duration of stay, worked out from the concentration-time curve. As a reminder, the half-life is the time in which the quantity being followed falls by half. What is called fraction unbound is free concentration divided by total concentration.
